Test systems include IGROV1 ovarian; MDA-MB-435; DU-145 prostate; SK-MEL-2 melanoma; SNB-75 CNS; HS 578T breast; TK-10 renal; A549 NSCLC.
What all share (test): NCI-60 cell line screen, 48 h

Each structure is given as a SMILES string.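 Protocol summary: plate cells (96-well), add compound at 5 concentrations, incubate 48 h, interpolate endpoints linearly. GI50 marks 50% less growth. TGI: concentration producing complete growth inhibition.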

In the case of `CC(C)=CCC/C(C)=C/CC/C(C)=C/CC/C=C(\C)CC/C=C(\C)CCC(=O)Nc1ccn(C2OC(CO)C(O)C2(F)F)c(=O)n1` (stereo not drawn), the GI50 in the experiment with IGROV1 ovarian was 0.142 µM; in the experiment on MDA-MB-435, 0.144 µM; with DU-145 prostate it was 0.0455 µM; in the experiment on SK-MEL-2 melanoma, 0.0183 µM; in the experiment on SNB-75 CNS it was 3 µM; in the experiment on HS 578T breast, 10.3 µM. The GI50 in the experiment on TK-10 renal is 3.05 µM; with A549 NSCLC, 0.344 µM. Also, the TGI in the experiment with IGROV1 ovarian was 11.1 µM; in the experiment with MDA-MB-435 it was 7.58 µM; in the experiment with DU-145 prostate, 3.23 µM; in the experiment with SK-MEL-2 melanoma, 1.28 µM; with SNB-75 CNS, 23.3 µM; in the experiment with HS 578T breast, 35.2 µM. In addition, the figures for the TGI with TK-10 renal and in the experiment on A549 NSCLC were 18.8 µM and 28.3 µM, respectively.

As to `CCn1c2ccccc2c2cc(/C=C(/C#N)C(N)=O)ccc21`, the GI50 is 2.87 µM with IGROV1 ovarian; 2.53 µM with MDA-MB-435; 13.8 µM in the experiment on DU-145 prostate; 11.4 µM in the experiment on SK-MEL-2 melanoma; 16.1 µM in the experiment on SNB-75 CNS; 5.69 µM in the experiment with HS 578T breast. Besides, the GI50 in the experiment with TK-10 renal was 2.31 µM; in the experiment with A549 NSCLC, 20.3 µM. Moreover, the TGI in the experiment on IGROV1 ovarian was over 51.9 µM; in the experiment on MDA-MB-435 it was 18.4 µM; with DU-145 prostate, over 100 µM; with SK-MEL-2 melanoma, over 60.4 µM; in the experiment on SNB-75 CNS, 44.1 µM; in the experiment on HS 578T breast, 39.7 µM. For the same compound, the TGI is over 28.8 µM in the experiment with TK-10 renal and over 100 µM in the experiment on A549 NSCLC.

In the case of `COc1ccc2cc(-c3c(-c4ccncc4)nc(-c4ccc(S(C)=O)cc4)n3C)ccc2c1` (stereo not drawn), the GI50 in the experiment with IGROV1 ovarian was over 25 µM; in the experiment on MDA-MB-435, 14.6 µM; with DU-145 prostate, over 25 µM; with SK-MEL-2 melanoma it was over 25 µM; in the experiment on SNB-75 CNS, over 12.8 µM; with HS 578T breast, 13.8 µM. Further, the results for the GI50 with TK-10 renal and in the experiment on A549 NSCLC were over 21.8 µM and over 25 µM, respectively. Moreover, the TGI with IGROV1 ovarian, with MDA-MB-435, in the experiment with DU-145 prostate, in the experiment on SK-MEL-2 melanoma, in the experiment on SNB-75 CNS and with HS 578T breast was over 25 µM each time. The TGI in the experiment with TK-10 renal and with A549 NSCLC was over 25 µM each time.

Regarding `CN1CCC(n2cnc(-c3ccc(F)cc3)c2-c2ccnc(N)n2)CC1`, the GI50 is 6.48 µM in the experiment on IGROV1 ovarian; 8.82 µM with MDA-MB-435; 10.7 µM in the experiment with DU-145 prostate; over 25 µM in the experiment on SK-MEL-2 melanoma; 10 µM in the experiment with SNB-75 CNS; 15.3 µM in the experiment on HS 578T breast. Also, the figures for the GI50 with TK-10 renal and in the experiment on A549 NSCLC were 7.89 µM and 7.47 µM, respectively. In addition, the TGI was over 20.7 µM in the experiment with IGROV1 ovarian; over 25 µM with MDA-MB-435; over 25 µM with DU-145 prostate; over 25 µM in the experiment on SK-MEL-2 melanoma; over 23.9 µM in the experiment with SNB-75 CNS; over 25 µM in the experiment with HS 578T breast. Moreover, the TGI with TK-10 renal and in the experiment on A549 NSCLC was over 25 µM throughout.

Turning to `N/N=C1\CC(=O)NC(=O)N1`, the TGI with IGROV1 ovarian, in the experiment with MDA-MB-435, in the experiment with DU-145 prostate, with SK-MEL-2 melanoma, in the experiment with SNB-75 CNS and in the experiment on HS 578T breast was over 100 µM in each case. The TGI in the experiment on TK-10 renal and in the experiment with A549 NSCLC was over 100 µM each time.

Turning to `O=C(O)COc1c(Cl)cc(Cl)c2cccnc12`, the TGI in the experiment on IGROV1 ovarian, in the experiment with MDA-MB-435, in the experiment with DU-145 prostate, with SK-MEL-2 melanoma, in the experiment with SNB-75 CNS and with HS 578T breast was over 100 µM in each case. The TGI with TK-10 renal and in the experiment with A549 NSCLC was over 100 µM each time.

Consider `COc1ccc(OC)c(C2SCC(=O)N2NC(=O)C(O)c2ccccc2)c1` (stereo not drawn), for which the GI50 with IGROV1 ovarian, in the experiment on MDA-MB-435, in the experiment on DU-145 prostate, in the experiment on SK-MEL-2 melanoma, in the experiment on SNB-75 CNS and with HS 578T breast was over 100 µM throughout. For the same compound, the GI50 with TK-10 renal and in the experiment on A549 NSCLC was over 100 µM in each case. In addition, the TGI in the experiment on IGROV1 ovarian, with MDA-MB-435, in the experiment on DU-145 prostate, with SK-MEL-2 melanoma, in the experiment with SNB-75 CNS and in the experiment on HS 578T breast was over 100 µM each time. For the same compound, the TGI in the experiment with TK-10 renal and with A549 NSCLC was over 100 µM in each case.

In the case of `CCN1C(=O)N(CC)C2C1NN=c1s/c(=C3\C(=O)N(CCc4ccccc4)c4ccccc43)c(=O)n12` (stereo not drawn), the GI50 was 0.672 µM with IGROV1 ovarian; 0.245 µM in the experiment on MDA-MB-435; 0.558 µM in the experiment with DU-145 prostate; 1.26 µM in the experiment on SK-MEL-2 melanoma; 0.289 µM in the experiment with SNB-75 CNS; 0.449 µM with HS 578T breast. For the same compound, the results for the GI50 with TK-10 renal and in the experiment on A549 NSCLC were 4.22 µM and 0.638 µM, respectively. Further, the TGI stood at 0.684 µM in the experiment on MDA-MB-435; 6.95 µM with DU-145 prostate; 12.3 µM in the experiment on SK-MEL-2 melanoma; 2.09 µM in the experiment on SNB-75 CNS; 6.37 µM in the experiment with HS 578T breast; 29.2 µM with TK-10 renal. In the experiment with A549 NSCLC, the TGI is over 39.5 µM.

`Cn1cncc1CC1COC(=O)C1C(O)c1ccccc1` (stereo not drawn): the TGI in the experiment on IGROV1 ovarian, with MDA-MB-435, in the experiment on DU-145 prostate, with SK-MEL-2 melanoma, with SNB-75 CNS and with HS 578T breast was over 100 µM in each case. Besides, the TGI with TK-10 renal and in the experiment with A549 NSCLC was over 100 µM each time.

Regarding `CC(=O)c1c(C(F)(F)F)n([O-])c2ccc(C)cc2[n+]1=O`, the GI50 is 4.14 µM with IGROV1 ovarian; 6.99 µM in the experiment with MDA-MB-435; 1.43 µM with DU-145 prostate; 15.5 µM with SK-MEL-2 melanoma; 3.28 µM in the experiment on SNB-75 CNS; 3.43 µM in the experiment on HS 578T breast. Besides, the results for the GI50 in the experiment on TK-10 renal and in the experiment with A549 NSCLC were 5.07 µM and 4.48 µM, respectively. Further, the TGI in the experiment on IGROV1 ovarian is over 100 µM; in the experiment with MDA-MB-435, 35.9 µM; in the experiment with DU-145 prostate it was 3.07 µM; in the experiment with SK-MEL-2 melanoma, over 66.5 µM; in the experiment on SNB-75 CNS it was 18.1 µM; in the experiment on HS 578T breast, over 58.5 µM. Further, the TGI was over 50.5 µM in the experiment on TK-10 renal and 26.6 µM in the experiment with A549 NSCLC.

On to `CSC(=S)N/N=C(\C)c1cccc(C)n1`, for which the TGI with IGROV1 ovarian was 18 µM; in the experiment on MDA-MB-435, over 35.7 µM; with DU-145 prostate, 12.8 µM; with SK-MEL-2 melanoma, 16.5 µM; in the experiment on SNB-75 CNS it was 13.6 µM; in the experiment on HS 578T breast, over 89 µM. Moreover, the TGI in the experiment on TK-10 renal worked out at 33.9 µM; in the experiment with A549 NSCLC it was 29.1 µM.

The values are drawn from PubChem BioAssay (NCI).
